Consider two compounds from US20180148470A1, “CHOLIC ACID DERIVATIVE, AND PREPARATION METHOD AND MEDICAL USE THEREOF” (Jiangsu Hansoh Pharmaceutical Group Co., Ltd., priority 2015, published 2018).

A short description of data set [1]: Pharmacokinetic test in rats. Format: in vivo, Sprague-Dawley (SD) rats. The note with it: male SD rats, intragastric administration of 10 mg/kg; for AUC(0-t) / Cmax / Tmax: Sprague-Dawley, rat, po, plasma; for AUC(0-t): read-out: area under the blood concentration-time curve AUC0-t; for Cmax: read-out: peak concentration Cmax; for Tmax: read-out: peak time of blood concentration tmax. As to the method:
Pharmacokinetic Test in Rats
The pharmacokinetic study of the present invention was performed in rats. The pharmacokinetic behavior of the positive control INT-747 and a representative compound of the present invention, such as Example 14-β, was studied in rats, and their pharmacokinetic characteristics were evaluated.
(1) Three male Sprague-Dawley (SD) rats were used, which were supplied by Sippr-BK laboratory animal Co. Ltd. Animal Production License No. SOCK (Shanghai) 2008-0016.
(2) Then, 10 mg of the sample was weighed and added with 10 mL of 0.5% CMC-Na aqueous solution, the mixture was fully shaken to make a 1 mg/ml uniform solution, and the remaining liquid samples were used for quantitative analysis.
(3) Three male SD rats were intragastrically administered at 10 mg/kg with a volume of 10 mL/kg after fasting for one night.
(4) About 0.05 mL of underjaw intravenous blood was collected before and 0.5, 1.0, 2.0, 4.0, 6.0, 8.0, 24.0, 30.0 hours after administration, and then placed in a EDTA-K2 test tube. The blood was centrifuged at 6000 rpm for 5 minutes to isolate the plasma, which was stored at −80° C. The rats were feed 4 hours after administration.
(1) Instruments and Equipment: API 4000 triple quadrupole mass spectrometer, Applied Biosystems, USA; Shimadzu LC-20AD high performance liquid chromatography system, Shimadzu, Japan.
(2) Condition of chromatography: The chromatographic column was Phenomenex gemiu 5 um C18 50×4.6 mm; mobile phase was acetonitrile: 0.1% TFA aqueous solution (gradient elution); flow rate (ml/min) was 0.8 ml/min.

For a further data set, the target named is T1, FXR (Homo sapiens, UniProt Q96RI1).
T1 sequence (Q96RI1 262-486 limits assumed): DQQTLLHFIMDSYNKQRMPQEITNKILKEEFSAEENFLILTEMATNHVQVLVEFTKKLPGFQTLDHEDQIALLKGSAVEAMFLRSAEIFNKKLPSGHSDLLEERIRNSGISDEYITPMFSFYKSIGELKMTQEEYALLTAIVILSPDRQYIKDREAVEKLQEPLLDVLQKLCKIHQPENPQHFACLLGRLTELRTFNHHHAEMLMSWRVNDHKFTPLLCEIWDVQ
The data set is described as follows: FXR reporter gene expression test (dual luciferase, FXR Gal4 reporter in HepG2 cells). It is filed as cell-based. The following applies: HepG2 cells transiently transfected with FXR Gal4 reporter, 18 hours. The source says: FXR Reporter Gene Expression Test
To analyze the effect of testing compounds on FXR-regulated gene expression, we used Promega's dual luciferase assay system (Promega #E1980) to detect the effect of the compounds on the FXR reporter gene in HepG2 hepatoma cell line (ATCC #HB-8065), which was transiently transfected with the FXR Gal4 reporter gene fragment. Specific experimental methods are as follows:
1. HepG2 Cell Culture and Maintenance
Cells were digested and cells with appropriate density were grown in 10 mL complete medium and then cultivated for 24 hours under 37° C., 5% CO2 humidity conditions.
2. Cell planting and transfection. Transfection reagent was Fugene HD (Promega#E231A)
(1) The transfection mixture was prepared according to the following table
(2) The mixture in the tube was vigorously mixed and incubated at room temperature for 15 minutes;
(3) The cells were digested in the culture dish and counted;
(4) The cell suspension was diluted to the desired volume of 600,000/mL (96-well plates 100 μL/well);
(5) The required volume of the transfection mixture was added to the cell suspension, followed by plating at 100 μL/well;
(6) Incubated for 24 hours under 37° C., 5% CO2 humidity conditions.
3. Treatment of the Compound
(1) 10 mM of mother liquor of the compound was prepared and then serially diluted 3 times with DMSO;
(2) 10 μL of compound was added to 90 μL of complete medium (10×);
(3) 5 μL of the solution of the compound (21×) was added to each well;
(4) Incubated for 18 hours under 37° C., 5% CO2 humidity conditions.
The firefly luciferase and the renilla luciferase signal (Promega #E1980) were detected by Promega's dual-luciferase assay system.
(2) Calculating the agonist rate
Agonist rate=(X−Min)/(Max−Min)*100% • X represents the F/R value of each concentration; • Min represents the F/R value without adding compound; • Max represents the F/R value of the reference compound.
(3) EC50 was calculated according to GraphPrism 5.0
A general note: Reporter assays use an easily measured gene product as a stand-in for the process of interest.

Another data set addresses T2, FXR receptor (Homo sapiens, UniProt Q96RI1).
T2 construct: Prepared 2× GST-labeled FXR-LBD/anti-GST Eu mixture to the required volume, the concentration of GST-FXR-LBD was 6 nM; purchased Life Technology Invitrogen PV4835
T2 sequence (Q96RI1 262-486 limits assumed): T1 sequence (Q96RI1 262-486 limits assumed)
T2 sequence (Q15788 676-700 partner limits assumed): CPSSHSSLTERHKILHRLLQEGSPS
The data set is described as follows: FXR receptor binding activity assay (TR-FRET; GST-FXR-LBD / SRC1 fragment). It is filed as biochemical. The following applies: FXR-LBD binding to SRC1 fragment, agonist rate. The source says:
FXR Receptor Binding Activity Assay (Time-Resolved Fluorescence Detection Method TR-FRET Method)
To test the effect of the present compounds on FXR receptor binding, we selected the commercial FXR receptor binding activity assay kit to test the effect of the compounds on FXR and its binding protein fragments (LBD structural domain binds to SRC1 fragment) (kit supplier: Life Technology Invitrogen Catalog: PV4835; cisbio Catalog: 610SAXLA and 61GSTKLA). Specific method was described in the kit instructions. The operation was as follows:
1. Prepared 2× GST-labeled FXR-LBD/anti-GST Eu mixture to the required volume, the concentration of GST-FXR-LBD was 6 nM, Eu was 50 nL/well.
2. Prepared 2× biotin-labeled SRC1/[…] (SA-APC) mixture to the required volume, the concentration of SRC1 was 1000 nM, and […] was 50 nL/well.
3. 2× GST-FXR/Eu and SRC1/SA-APC were mixed in a proportion of 1:1.
4. 20 μL of a mixture of GST-FXR/Eu and SRC1/SA-APC was added to a 384-well plate containing the compounds to be tested.
5. Centrifuged for 1 minute at 1000 rpm; incubated for 180 minutes at room temperature.
6. Time-resolved fluorescence detection: EnVision reader.
(1) the value at 665 nm divided by the value at 615 nm;
(2) calculating the agonist rate
Agonist rate=(X−Min)/(Max−Min)*100% • X represents the 665/615 value for each concentration; • Min represents the 665/615 value without adding compound; • Max represents the 665/615 value of the reference compound.
For orientation: TR-FRET usually uses a lanthanide donor and a delayed reading to cut background.

What is called EC50 is the midpoint of the concentration-response curve. Low readings indicate a more potent agent, high ones a less potent agent. `CC[C@H]1[C@@H](O)C2C3CCC([C@H](C)CC4SC(=O)NC4=O)[C@@]3(C)CCC2[C@@]2(C)CC[C@@H](O)C[C@@H]12` (single isomer, unassigned) [Example 14-β]: in data set [1], the AUC(0-t) turned out to be 41800 ng·h/mL, the Cmax came to 7580 ng/mL, the Tmax was found to be 60 min and the “exposed quantity in the tested animals compared with positive control INT-747” value is reported as “significantly better than that of the positive control INT-747”. Further, on FXR, the midpoint of the response, the EC50, lay at 57 nM. Besides, at FXR receptor, a half-maximal effect (EC50) was put at 4 nM.

`CC[C@H]1[C@@H](O)[C@@H]2[C@H](CC[C@]3(C)[C@@H]([C@H](C)CCC(=O)O)CC[C@@H]23)[C@@]2(C)CC[C@@H](O)C[C@@H]12` [INT-747, reference compound]: in data set [1], the AUC(0-t) came to 9030 ng·h/mL, the Cmax worked out at 4410 ng/mL and the Tmax turned out to be 30 min.
